From patent publication US20260167622A1, “PAN-KRAS DEGRADING AGENT, AND PREPARATION METHOD THEREFOR AND USE THEREOF” (LEADINGTAC PHARMACEUTICAL (SHAOXING) CO., LTD., priority 2022, published 2026)

Assays:
Format in all cases: cell-based
[1] = target: T1, KRAS G12D protein in A427 cells (Homo sapiens, UniProt P01116, G12D); experiment: KRAS degradation assay (Western Blot) in A427 cells; settings: for DC50: 24 h; for Dmax: A-427, 24 h
T1 construct: endogenous in cells; host or cells: A427
Text: Test Example 5: KRAS G12C, KRAS G12D, KRAS G12V, KRAS G13D, and KRAS WT (Expanded) Degradation Assays
The degradation effect of the compounds on KRAS was investigated on KRAS G12C mutant human non-small cell lung cancer cell NCI-H358, KRAS G12D mutant human metastatic pancreatic cancer cell AsPc-1, KRAS G12D mutant human lung cancer cell A427, KRAS G12V mutant human colorectal cancer cell SW620, KRAS G12V mutant human lung cancer cell SW900, KRAS G13D mutant human colorectal cancer epithelial cell DLD-1, and KRAS WT human gastric cancer cell MKN-1. The specific procedures were as follows: 0.95 mL of cells were seeded into each well of a 24-well cell culture plate to achieve a cell density of 5×10^5 cells/well; and the cell plate was incubated in an incubator at 37° C. with 5% CO2 overnight. Then 50 μL of the compound solution after dilution was added to each of the wells with the corresponding cells, so that the final concentration of the compound was in a range of 0.03-3000 nM. The final concentration of DMSO was 0.25%. After the compounds were added, the cell plate was incubated in an incubator at 37° C. with 5% CO2 for 24 h. The culture medium in the 24-well cell culture plate was then removed, and the plate was washed twice with 1×PBS (KeyGEN). 120 μL of RIPA (strong) lysis buffer (Beyotime) (supplemented with 1 mM phenylmethylsulfonyl fluoride, a protease inhibitor mixture (Beyotime), and a protease phosphatase inhibitor mixture (Beyotime)) was added to lyse adherent SW900 cells at the bottom of the cell culture plate. After the plate was left to stand on ice for 30 min, the protein lysate in each well was transferred to a 1.5 mL centrifuge tube and centrifuged at 15000 g for 20 min at 4° C. The cell lysate supernatants after centrifugation were cryopreserved in a refrigerator at −80° C. for later use.
After the samples of the cell lysate supernatants that had been prepared were thawed from the refrigerator at −80° C., the total protein concentrations of the cell lysates were determined using a BCA protein quantification kit (Tiangen). The total protein concentrations of the samples were then adjusted to 0.5 μg/μL with PBS and 5×SDS-PAGE protein loading buffer (Beyotime), and the samples were incubated in a water bath at 100° C. for 15 min. The samples were then incubated in an ice bath for 5 min and centrifuged at 14000 g for 1 min at 4° C., and the supernatants were mixed well as loading samples for the Western Blot assay. The samples were loaded into wells of a 10% precast gel (KeyGEN) with a loading volume of 10 μL (total protein: 5 μg), a sufficient Tris-MOPS-SDS running buffer (Adamas) was added, and then electrophoresis was performed at a constant voltage of 120 V for 55 min. After the electrophoresis, the proteins on the gel were transferred to PVDF membranes at a constant current of 250 mA for 55 min. After the membrane transfer, the PVDF membranes were incubated in 1× Quick Block blocking buffer (Beyotime)at room temperature for 30 min. After the blocking, the PVDF membranes were separately incubated at 4° C. overnight with the KRAS antibody (Abcam) diluted in a ratio of 1:1000 and the β-actin antibody (Abcam) diluted in a ratio of 1:2000 in 5% BSA as the diluent, and then washed with 1×TBST buffer (2.4 g of Tris, 8.8 g of NaCl, 1.5 mL of Tween 20, with pH adjusted to 7.4, with the volume brought to 1 L) 3 times for 10 min/time. The membranes were incubated with a secondary antibody (Abcam) diluted in 5% BSA at room temperature for 2 h, and then washed with 1×TBST buffer 3 times for 10 min/time. Finally, the membranes were incubated with Clarity Western ECL Substrate (BIO-RAD) for 5 min for luminescence and color development, and a ChemiScope 6200 Touch chemiluminescence imaging system (Clinx) was used for color development and protein mapping. Gray value analysis of the protein maps was performed using the chemiluminescence analysis software (Clinx). […]

[2] = target: T2, KRAS G12V protein in SW900 cells (Homo sapiens, UniProt P01116, G12V); experiment: KRAS degradation assay (Western Blot) in SW900 cells; settings: 24 h
T2 construct: endogenous in cells; host or cells: SW900
T2 sequence (P01116 1-188 isoform P01116-2 G12V): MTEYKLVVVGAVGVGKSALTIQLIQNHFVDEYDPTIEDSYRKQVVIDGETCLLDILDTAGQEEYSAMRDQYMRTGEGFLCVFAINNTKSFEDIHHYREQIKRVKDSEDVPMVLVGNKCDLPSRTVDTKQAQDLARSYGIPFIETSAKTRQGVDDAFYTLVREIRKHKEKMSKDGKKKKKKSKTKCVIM
Summary of the method: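 AsPc-1, A427, DLD-1 and SW900 cells (5×10^5/well) were treated 24 h at 37 °C with compound at 0.03-3000 nM final (0.25% DMSO). KRAS in lysates was detected by Western blot (5 μg protein, ECL), normalized to β-actin and compared with control to derive DC50 and Dmax.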

[3] = tested on: KRAS G12D mutant human lung cancer cell A427; experiment: 3D cell proliferation inhibition assay, A427; settings: A-427, 168 h, 3D culture, 7 days, CTG
Summary of the method: (§1)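 Cells were seeded in low-adsorption 96-well plates at 5×10^2 cells/well (MKN1 at 1×10^3) with compounds at final 10000-0.026 nM, 0.2% DMSO, and grown 7 days at 37° C. CTG luminescence gave inhibition relative to DMSO and medium-only controls, and IC50 came from a log-concentration curve fit.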

[4] = tested on: KRAS G12D mutant human gastric cancer cell AGS; experiment: 3D cell proliferation inhibition assay, AGS; settings: 168 h, 3D culture, 7 days, CTG
Summary of the method: as §1

[5] = tested on: KRAS G13D mutant human colorectal cancer epithelial cell DLD-1; experiment: 3D cell proliferation inhibition assay, DLD-1; settings: DLD-1, 168 h, 3D culture, 7 days, CTG
Summary of the method: as §1

[6] = tested on: KRAS WT human gastric cancer cell MKN1; experiment: 3D cell proliferation inhibition assay, MKN1; settings: MKN-1, 168 h, 3D culture, 7 days, CTG
Summary of the method: as §1

T1 sequence (P01116 1-188 isoform P01116-2 G12D): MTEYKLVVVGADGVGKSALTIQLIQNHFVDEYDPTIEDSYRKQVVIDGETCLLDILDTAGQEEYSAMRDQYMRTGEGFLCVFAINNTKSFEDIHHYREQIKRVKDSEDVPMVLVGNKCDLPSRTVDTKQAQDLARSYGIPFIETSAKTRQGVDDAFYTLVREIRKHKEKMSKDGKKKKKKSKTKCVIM

Structure (SMILES)	DC50 [1] [µM]	Dmax [1] [%]	DC50 [2] [µM]	Dmax [2] [%]	IC50 [3] [µM]	IC50 [4] [µM]	IC50 [5] [µM]	IC50 [6] [µM]
C#Cc1c(F)ccc2cc(O)cc(-c3ncc4c(N5CCC[C@@](C)(O)C5)nc(OCC5(CN6CCN(CC7CCC8(CC7)CCN(C(=O)c7ccc(Cl)c(N9CCC(=O)NC9=O)c7)CC8)CC6)CC5)nc4c3F)c12 [Example 1, (R)-1-(2-chloro-5-(9-((4-((1-(((7-(8-ethynyl-7-fluoro-3-hydroxynaphthalen-1-yl)-8-fluoro-4-(3-hydroxy-3-methylpiperidin-1-yl)pyrido[4,3-d]pyrimidin-2-yl)oxy)methyl)cyclopropyl)methyl)piperazin-1-yl)methyl)-3-azaspiro[5.5]undecane-3-carbonyl)phenyl)dihydropyrimidine-2,4(1H,3H)-dione]	≤ 0.05	80 to 100	≤ 0.05	80 to 100	≤ 0.05	≤ 0.05	≤ 0.05	≤ 0.05
CCc1c(F)ccc2cc(O)cc(-c3ncc4c(N5CCC[C@@](C)(O)C5)nc(OCC5(CN6CCN(CC7CCC8(CC7)CCN(C(=O)c7ccc(Cl)c(N9CCC(=O)NC9=O)c7)CC8)CC6)CC5)nc4c3F)c12 [Example 2, (R)-1-(2-chloro-5-(9-((4-((1-(((7-(8-ethyl-7-fluoro-3-hydroxynaphthalen-1-yl)-8-fluoro-4-(3-hydroxy-3-methylpiperidin-1-yl)pyrido[4,3-d]pyrimidin-2-yl)oxy)methyl)cyclopropyl)methyl)piperazin-1-yl)methyl)-3-azaspiro[5.5]undecane-3-carbonyl)phenyl)dihydropyrimidine-2,4(1H,3H)-dione]			≤ 0.05	80 to 100	≤ 0.05	≤ 0.05	≤ 0.05	≤ 0.05
CCc1cccc2cc(O)cc(-c3ncc4c(N5CCC[C@@](C)(O)C5)nc(OCC5(CN6CCN(CC7CCC8(CC7)CCN(C(=O)c7ccc(Cl)c(N9CCC(=O)NC9=O)c7)CC8)CC6)CC5)nc4c3F)c12 [Example 3, (R)-1-(2-chloro-5-(9-((4-((1-(((7-(8-ethyl-3-hydroxynaphthalen-1-yl)-8-fluoro-4-(3-hydroxy-3-methylpiperidin-1-yl)pyrido[4,3-d]pyrimidin-2-yl)oxy)methyl)cyclopropyl)methyl)piperazin-1-yl)methyl)-3-azaspiro[5.5]undecane-3-carbonyl)phenyl)dihydropyrimidine-2,4(1H,3H)-dione]	≤ 0.05	80 to 100	≤ 0.05	80 to 100	≤ 0.05	≤ 0.05	≤ 0.05	≤ 0.05
C#Cc1c(F)ccc2cc(O)cc(-c3ncc4c(N5CCC[C@@](C)(O)C5)nc(OCC5(CN6CCN(CC7CCC8(CC7)CCN(C(=O)c7ccc(C)c(N9CCC(=O)NC9=O)c7)CC8)CC6)CC5)nc4c3F)c12 [Example 6, (R)-1-(5-(9-((4-((1-(((7-(8-ethynyl-7-fluoro-3-hydroxynaphthalen-1-yl)-8-fluoro-4-(3-hydroxy-3-methylpiperidin-1-yl)pyrido[4,3-d]pyrimidin-2-yl)oxy)methyl)cyclopropyl)methyl)piperazin-1-yl)methyl)-3-azaspiro[5.5]undecane-3-carbonyl)-2-methylphenyl)dihydropyrimidine-2,4(1H,3H)-dione]	≤ 0.05	80 to 100	≤ 0.05	80 to 100	≤ 0.05	≤ 0.05	≤ 0.05	≤ 0.05
C#Cc1c(F)ccc2cc(O)cc(-c3ncc4c(N5CCC[C@@](C)(O)C5)nc(OCC5(CN6CCN(CC7CCC8(CC7)CCN(C(=O)c7ccc(OC)c(N9CCC(=O)NC9=O)c7)CC8)CC6)CC5)nc4c3F)c12 [Example 7, (R)-1-(5-(9-((4-((1-(((7-(8-ethynyl-7-fluoro-3-hydroxynaphthalen-1-yl)-8-fluoro-4-(3-hydroxy-3-methylpiperidin-1-yl)pyrido[4,3-d]pyrimidin-2-yl)oxy)methyl)cyclopropyl)methyl)piperazin-1-yl)methyl)-3-azaspiro[5.5]undecane-3-carbonyl)-2-methoxyphenyl)dihydropyrimidine-2,4(1H,3H)-dione]	≤ 0.05	80 to 100	≤ 0.05	80 to 100	≤ 0.05	≤ 0.05	≤ 0.05	≤ 0.05
C#Cc1cccc2cc(O)cc(-c3ncc4c(N5CCC[C@@](C)(O)C5)nc(OCC5(CN6CCN(CC7CCC8(CC7)CCN(C(=O)c7ccc(Cl)c(N9CCC(=O)NC9=O)c7)CC8)CC6)CC5)nc4c3F)c12 [Example 11, (R)-1-(2-chloro-5-(9-((4-((1-(((7-(8-ethynyl-3-hydroxynaphthalen-1-yl)-8-fluoro-4-(3-hydroxy-3-methylpiperidin-1-yl)pyrido[4,3-d]pyrimidin-2-yl)oxy)methyl)cyclopropyl)methyl)piperazin-1-yl)methyl)-3-azaspiro[5.5]undecane-3-carbonyl)phenyl)dihydropyrimidine-2,4(1H,3H)-dione]			≤ 0.05	80 to 100	0.05 to 0.1	≤ 0.05	≤ 0.05	≤ 0.05
